For ten compounds, melting point and IC50 results are on record in patent US8188078B2 (Sanofi-Aventis, priority 2007, dated 2012).

One data set concerns the target T1, c-MET (Homo sapiens, UniProt P08581).
T1 construct: The recombinant DNA His-Tev-MET (956-1390) in pFastBac(Invitrogen); His (N, cleaved yes); Tev (TEV protease site) (N, cleaved yes); made in house; host or cells: SF21 insect cells (baculovirus, pFastBac)
Briefly: Test A: HTRF Met test in 96-well format. It counts as biochemical. How it is done: I) Expression and Purification of MET, Cytoplasmic Domain
The recombinant DNA His-Tev-MET (956-1390) in pFastBac(Invitrogen) is transfected in insect cells and after several stages of viral amplification, the final stock of baculovirus is tested for expression of the protein of interest.
After infection for 72 h at 27° C. with the recombinant virus, the SF21 cell cultures are harvested by centrifugation and the cellular deposits are stored at −80° C.
The cellular deposits are resuspended in the lysis buffer (buffer A [50 mM HEPES, pH 7.5, 250 mM NaCl, Glycerol 10%, TECP 1 mM]; +cocktail of protease inhibitors Roche Diagnostics without EDTA, ref 1873580), stirred at 4° C. until homogeneous, then lysed mechanically using apparatus of the “Dounce” type.
After centrifugation, the lysis supernatant is incubated for 2 h at 4° C. with Nickel Chelate resin (His-Trap 6 Fast Flow™, GE HealthCare). After washing with 20 volumes of Tp A, the suspension is packed in a column, and the proteins are eluted with a gradient of buffer B ([…]+290 mM imidazole).
The fractions containing the protein of interest with a view to electrophoretic analysis (SDS PAGE) are collected, concentrated by ultrafiltration (cut-off 10 kDa) and injected in an exclusion chromatography column (Superdex™ 200, GE HealthCare) equilibrated with buffer A.
After enzymatic cleavage of the tag Histidine, the protein is reinjected in a new IMAC Nickel Chelate chromatography column (His-Trap 6 Fast Flow™, GE HealthCare) equilibrated with Buffer A. The fractions eluted with a gradient of buffer B and containing the protein of interest after electrophoresis (SDS PAGE), are finally collected and stored at −80° C.
For the production of autophosphorylated protein, the preceding fractions are incubated for 1 h at room temperature after adding ATP 2 mM, MgCl2 2 mM, and Na3VO4 4 mM. After stopping the reaction with 5 mM of EDTA, the reaction mixture is injected in a HiPrep desalting column (GE HealthCare) equilibrated beforehand with buffer A+Na3VO4 4 mM; the fractions containing the protein of interest (SDS PAGE analysis) are collected and stored at −80° C. The degree of phosphorylation is verified by mass spectrometry (LC-MS), and by peptide mapping.
A) HTRF Met test in 96-well format
In a final volume of 50 μl of enzymatic reaction mixture, final c-MET 5 nM is incubated in the presence of the molecule to be tested (for a final concentration range from 0.17 nM to 10 μM, final DMSO 3%) in buffer MOPS 10 mM pH 7.4, DTT 1 mM, Tween 20 0.01%. The reaction is initiated by the substrate solution to obtain the final concentrations of poly-(GAT) 1 μg/ml, ATP 10 μM and MgCl2 5 mM. After incubation for 10 min at room temperature, the reaction is stopped with a mix of 30 μl to obtain a final solution of Hepes 50 mM pH 7.5, potassium fluoride 500 mM, BSA 0.1% and EDTA 133 mM in the presence of 80 ng Streptavidin 61SAXLB Cis-Bio Int. and 18 ng anti-phosphotyrosine Mab PT66-Europium Cryptate per well. After 2 hours of incubation at room temperature, reading is carried out at 2 wavelengths 620 nm and 665 nm in a reader for the TRACE/HTRF technique and the percentage inhibition is calculated according to the 665/620 ratios.

A further data set deals with MKN45 cells. Briefly: Test D: cellular proliferation by 14C-thymidine pulse, MKN45 cells. It counts as cell-based. The following applies: Homo sapiens, MKN-45, cellular proliferation by 14C-thymidine pulse; cell line not stated (HCT116 or MKN45). As to the method:
D) Measurement of Cellular Proliferation by 14C-Thymidine Pulse
The cells are sown in Cytostar 96-well plates under 180 μl for 4 hours at 37° C. and 5% CO2: The HCT116 cells at a rate of 2500 cells per well in DMEM medium+10% foetal calf serum+1% of L-glutamine and the MKN45 cells at a rate of 7500 cells per well in RPMI medium+10% foetal calf serum+1% of L-glutamine. After said incubation for 4 hours, the products are added under 10 μl in 20-times concentrated solution according to the method of dilution stated for ELISA. The products are tested at 10 concentrations in duplicate from 10000 nM to 0.3 nM in steps of 3.
After treatment for 72 h, add 10 μl of 14C-thymidine at 10 μCi/ml to obtain 0.1 μCi per well. The incorporation of 14C-thymidine is measured on a Micro-Beta (Perkin-Elmer) after 24 hours of pulse and 96 h of treatment.
All the stages of the test are automated on the BIOMEK 2000 or TECAN stations.

In another data set the target is RON (Homo sapiens, UniProt Q04912). Put plainly: Test B: HTRF RON test in 96-well format. It counts as biochemical. As to the method:
B) HTRF RON Test in 96-Well Format
The inhibitory potency (IC50) of molecules on the enzymatic activity of kinase phosphorylation RON is determined by the HTRF technique. The activity of the kinase is evaluated by measuring the phosphorylation of the substrate polyGAT by the enzyme, in the presence of ATP.
Final RON 5 nM is incubated in the presence of the molecule to be tested (for a final concentration range from 0.17 nM to 10 μM, final DMSO 3%) in buffer MOPS 10 mM pH 7, DTT 1 mM, Tween 20 0.01%. This pre-incubation is performed in 96 half-well black plates in a volume of 35 μl for 30 minutes at room temperature.
The reaction is initiated by adding 15 μl of a mixture of substrates constituted of biotinylated poly-(GAT) 1 μg/ml final and ATP 10 μM final in the presence of MgCl2 5 mM final for a final volume of 50 μl.
After incubation for 30 min at room temperature, the reaction is stopped with 30 μl of a mixture of Hepes 100 mM final pH 7, potassium fluoride 400 mM final, BSA 0.1% and EDTA 133 mM in the presence of 80 ng per well of antibodies Streptavidin ITS-XL665 Cis-Bio Int. and 18 ng per well of anti-phosphotyrosine PT66 labelled with europium cryptate.
After incubation for 2 hours at room temperature, reading is carried out at 2 wavelengths 620 nm and 665 nm in a Genios TECAN reader for the TRACE/HTRF technique and the percentage inhibition is calculated according to the 665/620 ratios.
On the technique in general: In TR-FRET formats the signal depends on donor and acceptor labels being close together.

In the next data set the target is T2, MET (Homo sapiens, UniProt P08581).
T2 construct: endogenous in cells; host or cells: MKN45 cells
Briefly: Test C: inhibition of the autophosphorylation of MET, ELISA technique (pppY1230, 1234, 1235), MKN45 cells. The class given is cell-based. As to the method: C) Inhibition of the Autophosphorylation of MET; ELISA Technique (pppY1230, 1234, 1235)
a) Cellular lysates: Sow the MKN45 cells in a 96-well plate (Cell coat BD polylysine) at 20 000 cells/well under 200 μl of medium RPMI+10% FCS+1% L-glutamine. Leave to adhere to the incubator for 24 h.
The cells are treated on the day after sowing with the products at 6 concentrations in duplicate for 1 h. At least 3 control wells are treated with the same amount of final DMSO.
Dilution of the products: Stock at 10 mM in pure DMSO—range from 10 mM to 30 μM with steps of 3 of pure DMSO—Intermediate dilutions to 1/50 in culture medium then taking of 10 μl added directly to the cells (200 μl): final range from 10000 to 30 nM.
At the end of incubation, carefully remove the supernatant and rinse with 200 μl of PBS. Then put 100 μl of lysis buffer directly in the wells on ice and incubate at 4° C. for 30 minutes. Lysis buffer: 10 mM Tris, HCl pH7.4, 100 mM NaCl, 1 mM EDTA, 1 mM EGTA, 1% Triton X-100, 10% glycerol, 0.1% SDS, 0.5% deoxycholate, 20 mM NaF, 2 mM Na3VO4, 1 mM PMSF and antiprotease cocktail.
The 100 μl of lysates are transferred to a V-bottomed polypropylene plate and ELISA is performed next or the plate is frozen at −80° C.
b) ELISA PhosphoMET BioSource Kit KH00281
In each well of the plate from the kit, add 70 μl of dilution buffer from the kit+30 μL of cell lysate or 30 μl of lysis buffer for the blank. Incubate for 2 h at room temperature, stirring gently.
Rinse the wells 4 times with 400 μl of washing buffer from the kit. Incubate with 100 μl of anti-phospho MET antibodies for 1 h at room temperature.
Rinse the wells 4 times with 400 μl of washing buffer from the kit. Incubate with 100 μl of anti-rabbit HRP antibodies for 30 minutes at room temperature (except for the wells with chromogen only).
Rinse the wells 4 times with 400 μl of washing buffer from the kit. Add 100 μL of chromogen and incubate for 30 minutes in the dark at room temperature.
Stop the reaction with 100 μl of stop solution. Read at once at […] 0.1 second in the Wallac Victor plate reader.
The products of formula (I) as defined above show cellular activity in this test between 10 nM and 10 μM.
Background: ELISA stands for enzyme-linked immunosorbent assay.

The melting point is the temperature, or range, at which the solid turns liquid. By IC50 is commonly meant the concentration at which inhibition is half-maximal. A higher IC50 goes with lower potency.

RON, sequence (Q04912 25-1400): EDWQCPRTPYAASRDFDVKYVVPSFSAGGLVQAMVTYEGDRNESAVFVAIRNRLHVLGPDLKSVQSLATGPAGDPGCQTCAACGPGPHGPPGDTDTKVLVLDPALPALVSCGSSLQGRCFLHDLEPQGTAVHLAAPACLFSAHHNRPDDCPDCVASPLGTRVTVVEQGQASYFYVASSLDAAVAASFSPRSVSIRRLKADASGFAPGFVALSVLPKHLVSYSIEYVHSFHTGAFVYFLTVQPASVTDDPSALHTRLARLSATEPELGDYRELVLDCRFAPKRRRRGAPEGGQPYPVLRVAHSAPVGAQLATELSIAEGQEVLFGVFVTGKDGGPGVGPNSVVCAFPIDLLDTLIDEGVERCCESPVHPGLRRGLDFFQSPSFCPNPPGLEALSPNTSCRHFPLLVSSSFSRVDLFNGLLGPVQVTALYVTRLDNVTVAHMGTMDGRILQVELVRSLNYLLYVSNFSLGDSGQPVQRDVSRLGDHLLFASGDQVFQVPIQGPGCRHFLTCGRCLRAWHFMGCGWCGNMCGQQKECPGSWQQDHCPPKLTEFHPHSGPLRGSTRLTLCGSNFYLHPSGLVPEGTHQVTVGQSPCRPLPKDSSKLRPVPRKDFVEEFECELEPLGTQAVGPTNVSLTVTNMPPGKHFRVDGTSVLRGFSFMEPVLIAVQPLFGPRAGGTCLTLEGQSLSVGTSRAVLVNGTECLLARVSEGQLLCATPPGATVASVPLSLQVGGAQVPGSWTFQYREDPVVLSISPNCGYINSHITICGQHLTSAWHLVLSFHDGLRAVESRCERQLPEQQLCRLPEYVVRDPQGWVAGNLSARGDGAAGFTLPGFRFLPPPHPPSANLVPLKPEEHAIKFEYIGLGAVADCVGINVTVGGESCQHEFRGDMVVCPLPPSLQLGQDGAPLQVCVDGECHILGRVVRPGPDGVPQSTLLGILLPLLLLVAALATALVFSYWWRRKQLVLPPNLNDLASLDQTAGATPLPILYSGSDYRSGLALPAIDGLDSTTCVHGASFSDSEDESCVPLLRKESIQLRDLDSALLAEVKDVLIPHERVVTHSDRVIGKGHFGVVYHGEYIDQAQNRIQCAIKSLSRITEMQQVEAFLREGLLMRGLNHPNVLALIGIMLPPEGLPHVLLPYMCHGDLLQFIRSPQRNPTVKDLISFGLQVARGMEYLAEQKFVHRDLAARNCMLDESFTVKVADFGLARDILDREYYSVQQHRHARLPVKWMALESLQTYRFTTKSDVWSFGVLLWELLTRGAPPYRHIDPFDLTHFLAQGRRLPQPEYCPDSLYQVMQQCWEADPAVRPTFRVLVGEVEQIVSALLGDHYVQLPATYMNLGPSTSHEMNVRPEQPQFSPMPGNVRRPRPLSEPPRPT
T2 sequence (P08581 25-1390): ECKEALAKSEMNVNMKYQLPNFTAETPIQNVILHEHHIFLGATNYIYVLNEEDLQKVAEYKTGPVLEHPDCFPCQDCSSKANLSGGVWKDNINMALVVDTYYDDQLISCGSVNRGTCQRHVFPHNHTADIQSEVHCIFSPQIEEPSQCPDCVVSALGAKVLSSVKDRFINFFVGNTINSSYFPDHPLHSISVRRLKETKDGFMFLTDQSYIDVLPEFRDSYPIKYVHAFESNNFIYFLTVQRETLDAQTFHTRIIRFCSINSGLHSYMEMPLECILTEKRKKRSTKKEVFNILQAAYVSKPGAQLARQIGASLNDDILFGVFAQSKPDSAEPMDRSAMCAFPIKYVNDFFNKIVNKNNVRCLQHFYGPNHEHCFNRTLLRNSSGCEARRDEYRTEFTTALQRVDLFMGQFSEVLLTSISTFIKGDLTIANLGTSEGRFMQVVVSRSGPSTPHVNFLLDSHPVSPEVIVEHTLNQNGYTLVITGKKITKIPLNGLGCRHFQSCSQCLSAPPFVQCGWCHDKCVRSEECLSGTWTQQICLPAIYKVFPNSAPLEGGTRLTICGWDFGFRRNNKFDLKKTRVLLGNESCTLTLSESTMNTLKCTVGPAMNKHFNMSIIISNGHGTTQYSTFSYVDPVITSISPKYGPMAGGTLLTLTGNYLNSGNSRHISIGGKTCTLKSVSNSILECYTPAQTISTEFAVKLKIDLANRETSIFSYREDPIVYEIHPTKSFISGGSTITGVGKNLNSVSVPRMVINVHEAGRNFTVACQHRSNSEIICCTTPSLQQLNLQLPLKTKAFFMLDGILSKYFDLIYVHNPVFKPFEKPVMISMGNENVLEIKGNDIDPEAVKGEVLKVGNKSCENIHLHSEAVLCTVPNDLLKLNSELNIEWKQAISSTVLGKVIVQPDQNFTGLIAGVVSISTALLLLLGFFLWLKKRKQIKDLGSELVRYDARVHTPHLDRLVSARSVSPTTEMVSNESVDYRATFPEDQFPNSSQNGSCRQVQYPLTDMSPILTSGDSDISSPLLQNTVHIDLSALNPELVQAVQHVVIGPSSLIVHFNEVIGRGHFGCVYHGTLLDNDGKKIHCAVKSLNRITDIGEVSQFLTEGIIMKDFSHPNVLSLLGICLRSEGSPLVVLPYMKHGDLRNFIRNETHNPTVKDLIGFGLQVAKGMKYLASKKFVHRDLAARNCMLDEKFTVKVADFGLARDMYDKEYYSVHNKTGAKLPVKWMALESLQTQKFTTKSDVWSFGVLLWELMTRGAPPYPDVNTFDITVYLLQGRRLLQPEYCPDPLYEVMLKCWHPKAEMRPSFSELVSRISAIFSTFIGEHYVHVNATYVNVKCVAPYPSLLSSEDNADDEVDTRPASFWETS
T1 sequence (P08581 956-1390): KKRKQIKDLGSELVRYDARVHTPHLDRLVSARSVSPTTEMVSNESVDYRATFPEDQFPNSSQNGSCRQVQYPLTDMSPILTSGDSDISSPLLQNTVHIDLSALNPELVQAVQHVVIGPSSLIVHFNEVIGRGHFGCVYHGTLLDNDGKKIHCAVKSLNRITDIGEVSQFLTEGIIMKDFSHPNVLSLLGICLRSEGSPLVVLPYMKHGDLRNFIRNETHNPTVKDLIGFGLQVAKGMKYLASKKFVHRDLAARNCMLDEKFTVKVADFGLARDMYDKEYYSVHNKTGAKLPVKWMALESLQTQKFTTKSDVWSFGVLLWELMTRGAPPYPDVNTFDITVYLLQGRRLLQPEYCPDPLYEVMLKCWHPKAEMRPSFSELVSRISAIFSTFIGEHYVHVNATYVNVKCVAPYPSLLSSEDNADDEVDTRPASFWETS

Regarding `CC(Oc1cc2sc(N)nc2cc1F)c1c(Cl)ccc(F)c1Cl` (stereo not shown) [Example 30, 6-[1-(2,6-dichloro-3-fluorophenyl)ethoxy]-5-fluoro-1,3-benzothiazol-2-amine], the melting point was determined as 223 °C. In addition, the half-inhibitory concentration (IC50) on c-MET was less than 100 nM. This compound also gave an IC50 in the data set with MKN45 cells greater than 10000 nM. The compound further returned an IC50 on RON of 500 to 10000 nM.

On to `CC(Oc1ccc2nc(NC(=O)NCCN3CCOCC3)sc2c1)c1ccccc1` (stereo not shown) [Example 14, 1-(2-morpholin-4-ylethyl)-3-[6-(1-phenylethoxy)-1,3-benzothiazol-2-yl]urea], for which the melting point was 161 °C. For the same compound, the IC50 at c-MET was in the range of 100 to 10000 nM. In the data set with MKN45 cells, this compound returned an IC50 greater than 10000 nM. Besides, the IC50 against RON lay in the range of 500 to 10000 nM.

Take `O=C(NCCN1CCOCC1)Nc1nc2ccc(OCc3c(Cl)cccc3Cl)cc2[nH]1` [Example 1, 1-{6-[(2,6-dichlorobenzyl)oxy]-1H-benzimidazol-2-yl}-3-(2-morpholin-4-ylethyl)urea]: the melting point is 256 to 259 °C. In addition, the IC50 against c-MET was less than 100 nM. In the data set on MKN45 cells, this compound yielded an IC50 greater than 10000 nM. At RON, this compound came in with an IC50 of 500 to 10000 nM.

For `CC(Oc1cc2sc(NC(=O)NCCN3CCCCC3)nc2cc1F)c1c(Cl)ccc(F)c1Cl` (stereo not shown) [Example 80, 1-{6-[1-(2,6-dichloro-3-fluorophenyl)ethoxy]-5-fluoro-1,3-benzothiazol-2-yl}-3-[2-(piperidin-1-yl)ethyl]urea], the melting point lay within 186 to 195 °C. On c-MET, this compound yielded an IC50 of less than 100 nM. In addition, in the data set with MKN45 cells, the IC50 was 500 to 10000 nM. On RON, this compound returned an IC50 of 500 to 10000 nM.

For `O=C(NCCN1CCOCC1)Nc1nc2ccc(OCc3c(F)cccc3Cl)cc2s1` [Example 15, 1-{6-[(2-chloro-6-fluorobenzyl)oxy]-1,3-benzothiazol-2-yl}-3-(2-morpholin-4-ylethyl)urea], the melting point was 210 °C. The compound further showed an IC50 against c-MET of less than 100 nM. The same compound gave an IC50 in the data set on MKN45 cells of 500 to 10000 nM. This compound had an IC50 against RON of 500 to 10000 nM.

The compound `CC(Oc1ccc2nc(NC(=O)NCCN3CCOCC3)sc2c1)c1cc(F)cc(F)c1` (stereo not shown) [Example 62, 1-{6-[1-(3,5-difluorophenyl)ethoxy]-1,3-benzothiazol-2-yl}-3-(2-morpholin-4-ylethyl)urea] returned a melting point of 179 °C. Besides, the IC50 on c-MET was 100 to 10000 nM. The IC50 with MKN45 cells was greater than 10000 nM. In addition, the 50% inhibitory concentration (IC50) at RON was in the range of 500 to 10000 nM.

`O=C(NCCN1CCOCC1)Nc1nc2ccc(OCc3c(F)cccc3F)cc2s1` [Example 13, 1-{6-[(2,6-difluorobenzyl)oxy]-1,3-benzothiazol-2-yl}-3-(2-morpholin-4-ylethyl)urea] displayed a melting point of 219 °C. Moreover, the IC50 against c-MET was less than 100 nM. The compound also yielded an IC50 in the data set with MKN45 cells greater than 10000 nM. The IC50 against RON was in the range of 500 to 10000 nM.

`Cc1cc2nc(NC(=O)NCCN3CCOCC3)sc2cc1OC(C)c1c(Cl)ccc(F)c1Cl` (stereo not shown) [Example 107, 1-{6-[1-(2,6-dichloro-3-fluorophenyl)ethoxy]-5-methyl-1,3-benzothiazol-2-yl}-3-[2-(morpholin-4-yl)ethyl]urea] yielded a melting point of 270 to 276 °C. Moreover, the IC50 against MET was less than 500 nM. Besides, the IC50 against c-MET was less than 100 nM. The 50% inhibitory concentration (IC50) with MKN45 cells is 500 to 10000 nM.

The compound `CC(Oc1ccc2nc(NC(=O)NCCN3CCOCC3)sc2c1)c1c(F)ccc(Cl)c1F` (stereo not shown) [Example 63, 1-{6-[1-(3-chloro-2,6-difluorophenyl)ethoxy]-1,3-benzothiazol-2-yl}-3-(2-morpholin-4-ylethyl)urea] returned a melting point of 154 °C. The same compound returned an IC50 at MET of 500 to 10000 nM. The compound further came in with a half-maximal inhibitory concentration (IC50) on c-MET of 100 to 10000 nM. The compound also returned a 50% inhibitory concentration (IC50) in the data set on MKN45 cells greater than 10000 nM.

`CC(C)OCCNC(=O)Nc1nc2cc(F)c(OC(C)c3c(Cl)ccc(F)c3Cl)cc2s1` (stereo not shown) [Example 92, 1-{6-[1-(2,6-dichloro-3-fluorophenyl)ethoxy]-5-fluoro-1,3-benzothiazol-2-yl}-3-(2-isopropoxyethyl)urea] displayed a melting point of 177 to 184 °C. Also, on MET, the IC50 was less than 500 nM. The compound further yielded an IC50 on c-MET of less than 100 nM. Further, the IC50 in the data set on MKN45 cells lay in the range of 500 to 10000 nM.
